These results are taken from article PMC9820082, “Synthesis of 9-Hydroxy-1H-Benzo[f]chromene Derivatives with Effective Cytotoxic Activity on MCF7/ADR, P-Glycoprotein Inhibitors, Cell Cycle Arrest and Apoptosis Effects” (International Journal of Molecular Sciences, 2022).

Each structure is given as a SMILES string.

In data set [1] the test system is PC-3 (human prostate adenocarcinoma, metastatic). In words: MTT colorimetric cytotoxicity assay, PC-3. The class given is cell-based. The note with it: Homo sapiens; MTT, 24 h incubation, mean ± standard error. Here is the method:
(§1) Three human cancer cell lines, PC-3 (human prostate adenocarcinoma, metastatic), […], were used to test the anti-proliferative activity of β-enaminonitrile (4a–p) using the MTT colorimetric assay at concentrations ranging from 0–100 μM. The representative active cytotoxic substances 4a, 4c, 4d, 4e, 4g, 4i, 4k and 4o were also tested against two normal cell lines, human fetal lung (HFL-1) and human diploid fibroblasts (WI-38), as well as Adriamycin (ADR)-resistant human breast cancer cells (MCF-7/ADR). The reference cytotoxic agents, Vinblastine and Doxorubicin, were used in the tests.
(§2) The tumor cell lines MCF-7, HepG-2, PC-3 MCF-7/ADR, HFL-1 and (WI-38) were obtained from the American Type Culture Collection (ATCC, Rockville, MD, USA). The cells were grown on RPMI-1640 medium supplemented with 10% inactivated fetal calf serum and 50 µg/mL gentamycin. The cells were maintained at 37 ^οC in a humidified atmosphere with 5% CO2 and were subcultured two to three times a week.
(§3) The cytotoxic activity was appraised using the 3-(4,5-dimethylthiazol-2-yl)-2,5-diphenyltetrazolium bromide (MTT) colorimetric assay for the antitumor cell lines, as reported previously, and the ELISA assay for MCF-7/ADR [69].
A general note: Formazan colour is commonly taken as a measure of viable cells.

Data set [2] relates to SKOV-3 (ovarian cancer cell line). In words: MTT colorimetric cytotoxicity assay, SKOV-3. In kind it is cell-based, human. The note with it: Homo sapiens, SK-OV-3, 24 h, 24 h incubation, mean ± standard error. As to the method:
as §1, §3

Data set [3] concerns HeLa (cervical cancer cell line). In words: MTT colorimetric cytotoxicity assay, HeLa. In kind it is cell-based, human. The note with it: 24 h incubation, mean ± standard error. Here is the method:
as §1, §3

In data set [4] the test system is Adriamycin (ADR)-resistant human breast cancer cells (MCF-7/ADR). In words: Cytotoxicity against MCF-7/ADR cells. The class given is cell-based. The note with it: 24 h exposure, mean ± standard error. As to the method:
as §1, §2, §3

The subject of a further data set is MCF-7/ADR cells. In words: Annexin V/PI double staining flow cytometric apoptosis test. In kind it is cell-based, human. The note with it: IC50 value, 24 h. The source says:
One of the optional mechanisms regarding the lethal action of chemotherapeutic medicines is blocking cell cycle progression, triggering apoptosis with otherwise mutual effect. […] The pivotal relation of the newly synthesized MCF-7/ADR “anticancer drugs” was further evaluated using the Annexin V/PI double staining flow cytometric test. […] In comparison to Doxorubicin’s 30% total apoptosis rate, which was nearly identical to 4a, 4c and 4g, compounds 4d, 4e and 4i were leading with percentages of 41%, 31% and 38%, respectively. Only compounds 4a (8.5%) and 4g (11%) had greater effects on necrosis compared to doxorubicin (5%). Other examined substances caused both early and late apoptosis in all treated cells (Figure 7b). Therefore, MCF-7/ADR cytotoxicity is induced by apoptotic processes, apparently without negative effects on P-gp.
(a) The dot plot of the Annexin V/PI-stained cells, treated with the indicated drugs. […] The data are expressed as the mean ± SD of three independent experiments in triplicate. Significances are shown in comparison to control cells (* p < 0.001). TEXT PRINTED IN THE PICTURE: (a) DOX.: 3.33%; 18.41%; 7.85% | (a) 4a: 8.66%; 18.17%; 4.24% | (a) 4c: 2.74%; 12.73%; 9.11% | (a) 4d: 4.85%; 27.44%; 8.73% | (a) 4e: 5.77%; 9.92%; 15.92% | (a) 4g: 11.04%; 3.94%; 7.38% | (a) 4i: 5.54%; 12.87%; 19.61% DOUBTS OF THE COPYIST ABOUT THIS PICTURE: The quadrant percentages in panel (a) are printed very small and blurred, so 3, 5, 6, 8 and 9 cannot be told apart with certainty. […] They are told apart only by their quadrant in the PI / Annexin V-FITC plot, and are listed upper left, upper right, lower right. / The sample line in each plot reads MCF7/ADR. In the 4g plot it is cut off as 'MCF7/AI'. / The panel 'Cont.' (untreated control: 1.56%, 0.15%, 0.48%) is left out because it is not a substance.
On the technique in general: In flow cytometry, cells or beads pass a laser one at a time.

The subject of the next data set is P-glycoprotein (P-gp). In words: P-gp content in MCF-7/ADR cell lysate (human P-gp ELISA kit). In kind it is cell-based. The note with it: human, MCF-7/ADR cells (cell lysate); MCF-7/ADR cell lysate, 48 h, ELISA. As to the method: P-glycoprotein (P-gp)-mediated multidrug resistance (MDR) is a phenomenon in which cells become resistant to structurally and mechanistically unrelated drugs, resulting in low intracellular drug concentrations. It is one of the noteworthy problems in malignant tumor clinical therapeutics.
The content of P-gp in the MCF-7/ADR cell lysates after incubation with varying conc. (12.5–100 µM) of tested compounds 4a, 4c, 4d, 4e, 4g and 4i following exposure for 48 hr was determined using a commercial human P-gp (Permeability Glycoprotein) ELISA Kit (MBS2506188, MyBioSource Inc., San Diego, CA, USA). Absorption was recorded at 450 nm with a Spectramax Gemini fluorescence microplate reader (Molecular Devices, Sunnyvale, CA, USA).
On the technique in general: ELISA stands for enzyme-linked immunosorbent assay.

A further data set has as its system human fetal lung (HFL-1). Briefly: Cytotoxicity against normal cell line HFL-1. The class given is cell-based. The note with it: Homo sapiens, HFL1, 24 h, 24 h incubation, mean ± standard error. Here is the method: as §1, §2, §3
The subject of data set [5] is human diploid fibroblasts (WI-38). Briefly: Cytotoxicity against normal cell line WI-38. The note with it: Homo sapiens, WI-38, 24 h, 24 h incubation, mean ± standard error. In kind it is cell-based. As to the method:
as §1, §2, §3

The mark [6] stands for this setting: Homo sapiens, NCI/ADR-RES, 24 h.

The IC50 is the concentration that inhibits the measured activity by half. Low readings indicate greater potency in that assay, high ones weaker potency in that assay. A word on the melting point: it is the temperature of the solid-liquid transition. Compound `N#CC1=C(N)Oc2ccc3ccc(O)cc3c2C1c1c(Cl)cccc1Cl` (stereo not shown) [4f, 3-Amino-1-(2,6-Dichlorophenyl)-9-Hydroxy-1H-Benzo[f]chromene-2-Carbonitrile] yielded a melting point of 196 to 197 °C. Half-maximal inhibition in data set [1] (IC50) was put at 26.6 ± 3.1 µM. In data set [2], the IC50 came out at 7 ± 0.4 µM. This compound showed an IC50 in data set [3] (Homo sapiens, HeLa, 24 h) of 4.1 ± 0.3 µM.

With `COc1ccc(C2C(C#N)=C(N)Oc3ccc4ccc(O)cc4c32)cc1OC` (stereo not shown) [4l, 3-Amino-1-(3,4-Dimethoxyphenyl)-9-Hydroxy-1H-Benzo[f]chromene-2-Carbonitrile], the melting point is 268 to 269 °C. The compound further had a half-maximal inhibitory concentration (IC50) in data set [1] of 4.1 ± 0.9 µM. The midpoint of inhibition in data set [2], the IC50, lay at 4 ± 1.3 µM. In [3] (Homo sapiens, HeLa, 24 h), the half-maximal inhibitory concentration (IC50) is 5.3 ± 0.2 µM.

Compound `N#CC1=C(N)Oc2ccc3ccc(O)cc3c2C1c1c(F)cccc1F` (stereo not shown) [4b, 3-Amino-1-(2,6-Difluorophenyl)-9-Hydroxy-1H-Benzo[f]chromene-2-Carbonitrile] had a melting point of 193 to 194 °C. In data set [1], this compound returned an IC50 of 9.4 ± 0.5 µM. This compound returned an IC50 in data set [2] of 2 ± 0.2 µM. Further, in [3] (Homo sapiens, HeLa, 24 h), it took 6.7 ± 0.2 µM to reach half-maximal inhibition (IC50).

Take `N#CC1=C(N)Oc2ccc3ccc(O)cc3c2C1c1c(F)c(F)c(F)c(F)c1F` (stereo not shown) [4p, 3-Amino-9-Hydroxy-1-(Perfluorophenyl)-1H-Benzo[f]chromene-2-Carbonitrile]: the melting point was 299 to 300 °C. In [1], this compound gave an IC50 of 4.5 ± 1.2 µM. The same compound had a half-inhibitory concentration (IC50) in [2] of 4.2 ± 0.3 µM. In data set [3] (Homo sapiens, HeLa, 24 h), this compound registered a concentration for half-maximal inhibition (IC50) of 3.9 ± 0.4 µM.

Regarding `N#CC1=C(N)Oc2ccc3ccc(O)cc3c2C1c1c(F)cccc1Cl` (stereo not shown) [4h, 3-Amino-1-(2-Chloro-6-Flourophenyl)-9-Hydroxy-1H-Benzo[f]chromene-2-Carbonitrile], the melting point was 298 to 299 °C. This compound also showed an IC50 in [1] of 11.6 ± 0.8 µM. Further, the concentration for half-maximal inhibition (IC50) in data set [2] was determined as 3.1 ± 0.2 µM. In data set [3] (Homo sapiens, HeLa, 24 h), this compound yielded an IC50 of 4.7 ± 0.5 µM.

`CC[C@]1(O)C[C@@H]2CN(CCc3c([nH]c4ccccc34)[C@@](C(=O)OC)(c3cc4c(cc3OC)N(C)[C@H]3[C@@](O)(C(=O)OC)[C@H](OC(C)=O)[C@]5(CC)C=CCN6CC[C@]43[C@@H]65)C2)C1` [Vinblastine, reference compound]: the IC50 in [1] is 7.5 ± 1.3 µM; in [2], 3.2 ± 1.2 µM; in data set [3] (Homo sapiens, HeLa, 24 h), 5.7 ± 1.1 µM.

On to `COc1cccc2c1C(=O)c1c(O)c3c(c(O)c1C2=O)C[C@@](O)(C(=O)CO)C[C@@H]3O[C@H]1C[C@H](N)[C@H](O)[C@H](C)O1` [Doxorubicin, reference compound], for which the half-maximal inhibitory concentration (IC50) in [4] (setting [6]) amounted to 18.6 ± 0.2 µM; in data set [1], 1.3 ± 0.3 µM; in data set [2], 1.1 ± 0.2 µM; in [3] (Homo sapiens, HeLa, 24 h) it was 1.5 ± 0.3 µM. The compound also showed a necrosis in the data set on MCF-7/ADR cells of 5%. The half-inhibitory concentration (IC50) at 48 h in the data set on P-glycoprotein (P-gp) was 50.9 µM.

`COc1cc(C2C(C#N)=C(N)Oc3ccc4ccc(O)cc4c32)cc(OC)c1OC` (stereo not shown) [4o, 3-Amino-1-(3,4,5-Trimethoxyphenyl)-9-Hydroxy-1H-Benzo[f]chromene-2-Carbonitrile] had a melting point of 252 to 253 °C. In data set [4], this compound showed an IC50 of 23.7 ± 0.4 µM. The same compound came in with an IC50 in the data set on human fetal lung (HFL-1) of 22.2 ± 0.4 µM. 2.1 ± 0.8 µM corresponded to half-maximal inhibition in data set [1] (IC50). In addition, in data set [5], half-maximal inhibition (IC50) required 20.4 ± 0.3 µM. This compound also had an IC50 in data set [2] of 3.1 ± 0.1 µM. In data set [3] (Homo sapiens, HeLa, 24 h), this compound registered an IC50 of 5.7 ± 1.8 µM.

Compound `COc1ccc(C2C(C#N)=C(N)Oc3ccc4ccc(O)cc4c32)c(OC)c1` (stereo not shown) [4k, 3-Amino-1-(2,4-Dimethoxyphenyl)-9-Hydroxy-1H-Benzo[f]chromene-2-Carbonitrile] showed a melting point of 242 to 243 °C. This compound also came in with an IC50 in data set [4] (setting [6]) of 36.8 ± 0.2 µM. In the data set on human fetal lung (HFL-1), this compound came in with a half-inhibitory concentration (IC50) of 24.2 ± 0.1 µM. For the same compound, the half-maximal inhibitory concentration (IC50) in data set [1] was found to be 3.7 ± 0.3 µM. Also, in data set [5], the concentration for half-maximal inhibition (IC50) came out at 25.3 ± 1.3 µM. Moreover, in [2], the half-maximal inhibitory concentration (IC50) was found to be 1.7 ± 0.3 µM. Besides, the IC50 in data set [3] was 6.7 ± 0.1 µM.

Regarding `COc1cccc(C2C(C#N)=C(N)Oc3ccc4ccc(O)cc4c32)c1O` (stereo not shown) [4j, 3-Amino-1-(2-Hydroxy-3-Methoxyphenyl)-9-Hydroxy-1H-Benzo[f]chromene-2-Carbonitrile], the melting point fell in the range of 269 to 270 °C. For the same compound, the IC50 in [1] stood at 33.5 ± 3.5 µM. In [2], this compound came in with an IC50 of 97.4 ± 0.8 µM. For the same compound, the concentration for half-maximal inhibition (IC50) in [3] (Homo sapiens, HeLa, 24 h) was determined as 50.4 ± 1.3 µM.

As for `COc1cc(OC)c(C2C(C#N)=C(N)Oc3ccc4ccc(O)cc4c32)cc1OC` (stereo not shown) [4n, 3-Amino-1-(2,4,5-Trimethoxyphenyl)-9-Hydroxy-1H-Benzo[f]chromene-2-Carbonitrile], the melting point is 235 to 236 °C. For the same compound, in data set [1], the IC50 came to 7.6 ± 1.2 µM. For the same compound, in data set [2], the IC50 was 2.4 ± 0.4 µM. Besides, the midpoint of inhibition in data set [3] (Homo sapiens, HeLa, 24 h), the IC50, lay at 4.9 ± 0.5 µM.

For the compound `COc1ccc(C2C(C#N)=C(N)Oc3ccc4ccc(O)cc4c32)c(OC)c1OC` (stereo not shown) [4m, 3-Amino-1-(2,3,4-Trimethoxyphenyl)-9-Hydroxy-1H-Benzo[f]chromene-2-Carbonitrile], the melting point was in the range of 265 to 266 °C. For the same compound, the concentration for half-maximal inhibition (IC50) in [1] is 6.5 ± 1.3 µM. Moreover, half-maximal inhibition in data set [2] (IC50) was put at 3.4 ± 0.5 µM. Besides, in [3] (Homo sapiens, HeLa, 24 h), half-maximal inhibition (IC50) was put at 8.8 ± 0.5 µM.
